We go through 8 compounds from ChEMBL document CHEMBL2346599, “Rational design and binding mode duality of MDM2-p53 inhibitors” (J Med Chem, 2013).

Each structure is given as a SMILES string. pIC50: −log10 of the molar value. Calls of active or inactive are those of the source.

The target of data set [1] is T1, E3 ubiquitin-protein ligase Mdm2 (Homo sapiens, UniProt Q00987). The data set can be described thus: Inhibition of human recombinant GST-thrombin-MDM2 (1 to 188) expressed in Escherichia coli assessed as reduction of MDM2-p53 interaction incubated for 20 mins followed by p53 addition measured after 60 mins by HTRF assay in presence of 15% serum. For orientation: In TR-FRET formats the signal depends on donor and acceptor labels being close together.
T1 sequence (Q00987 whole entry): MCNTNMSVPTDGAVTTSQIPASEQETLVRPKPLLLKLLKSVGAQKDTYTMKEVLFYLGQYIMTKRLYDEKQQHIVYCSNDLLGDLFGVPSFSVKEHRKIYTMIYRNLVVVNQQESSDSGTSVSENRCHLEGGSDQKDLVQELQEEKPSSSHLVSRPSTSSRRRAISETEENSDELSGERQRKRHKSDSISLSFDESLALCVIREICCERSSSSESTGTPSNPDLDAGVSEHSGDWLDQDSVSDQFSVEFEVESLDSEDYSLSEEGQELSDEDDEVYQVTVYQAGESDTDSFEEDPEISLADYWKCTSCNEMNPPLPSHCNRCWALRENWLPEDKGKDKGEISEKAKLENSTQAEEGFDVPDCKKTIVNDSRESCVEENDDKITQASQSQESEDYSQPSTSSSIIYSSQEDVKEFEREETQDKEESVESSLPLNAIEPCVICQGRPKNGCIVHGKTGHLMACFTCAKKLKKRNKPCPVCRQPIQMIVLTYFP

In data set [2] the target is T1, E3 ubiquitin-protein ligase Mdm2. The data set can be described thus: Inhibition of human recombinant GST-thrombin-MDM2 (1 to 188) expressed in Escherichia coli assessed as reduction of MDM2-p53 interaction incubated for 20 mins followed by p53 addition measured after 60 mins by HTRF assay.
The target of data set [3] is T2, Protein Mdm4 (Homo sapiens, UniProt O15151).
T2 sequence (O15151 whole entry): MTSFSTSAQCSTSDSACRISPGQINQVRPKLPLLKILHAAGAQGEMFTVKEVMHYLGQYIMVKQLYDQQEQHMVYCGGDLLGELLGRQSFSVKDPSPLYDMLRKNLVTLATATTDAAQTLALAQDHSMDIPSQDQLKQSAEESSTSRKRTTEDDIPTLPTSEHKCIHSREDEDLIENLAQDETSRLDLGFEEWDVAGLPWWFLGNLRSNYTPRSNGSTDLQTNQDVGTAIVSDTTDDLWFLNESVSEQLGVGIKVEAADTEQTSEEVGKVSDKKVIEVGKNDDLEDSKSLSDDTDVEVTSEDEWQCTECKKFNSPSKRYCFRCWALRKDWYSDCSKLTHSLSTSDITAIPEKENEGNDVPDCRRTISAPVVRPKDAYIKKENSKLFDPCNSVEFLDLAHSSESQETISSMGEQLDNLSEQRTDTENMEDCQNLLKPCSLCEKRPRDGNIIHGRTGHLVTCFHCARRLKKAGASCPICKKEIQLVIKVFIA
The data set can be described thus: Binding affinity to MDMX (unknown origin) after 20 mins by HTRF assay.

A short description of data set [4]: Drug uptake in tumor of athymic nude mouse xenografted with human SJSA1 cells at 100 mg/kg, po qd after 7 hrs. The format is ADME, organism-based, Neoplasm, SJSA-1. Further details: dose 100 mg/kg, route oral. To be noted: read-out: Drug uptake. (In general: In xenograft studies the graft and the host belong to different species.)
A short description of data set [5]: Drug uptake in tumor of athymic nude mouse xenografted with human SJSA1 cells at 300 mg/kg, po qd after 7 hrs. The data set is classed as ADME, organism-based, Neoplasm, SJSA-1. Further details: dose 300 mg/kg, route oral. To be noted: read-out: Drug uptake.
Data set [6] in a line: Drug uptake in tumor of athymic nude mouse xenografted with human SJSA1 cells at 30 mg/kg, po qd after 7 hrs. The format is ADME, organism-based, Neoplasm, SJSA-1. Further details: dose 30 mg/kg, route oral. To be noted: read-out: Drug uptake.
Data set [7] in a line: Plasma concentration in athymic nude mouse xenografted with human SJSA1 cells at 300 mg/kg, po qd after 7 hrs. Also on record: dose 300 mg/kg, route oral. The format is ADME, organism-based, SJSA-1.
Data set [8] is described as follows: Fraction unbound in rat plasma. The format is ADME, cell-free.
The nature of data set [9]: Fraction unbound in human plasma. The format is ADME, cell-free.
Data set [10] is described as follows: Oral bioavailability in athymic nude mouse at 5 mg/kg. The data set is classed as ADME, organism-based. To be noted: in vivo.
Data set [11] in a line: Fraction unbound in mouse plasma. The data set is classed as ADME, cell-free.
A short description of data set [12]: Volume of distribution at steady state in athymic nude mouse at 1 mg/kg, iv. To be noted: in vivo, read-out: Vdss. Also on record: dose 1 mg/kg, route intravenous. The format is ADME, organism-based.
Data set [13] is described as follows: Half life in athymic nude mouse at 1 mg/kg, iv. The data set is classed as ADME, organism-based. Also on record: dose 1 mg/kg, route intravenous. To be noted: in vivo.
Data set [14] can be described thus: AUC in athymic nude mouse at 5 mg/kg, po. Also on record: dose 5 mg/kg, route oral. The data set is classed as ADME, organism-based. To be noted: plasma.
Data set [15] can be described thus: Clearance in athymic nude mouse at 1 mg/kg, iv. The format is ADME, organism-based. Further details: dose 1 mg/kg, route intravenous. To be noted: in vivo.
For data set [16], the species on record is Mus musculus. To be noted: SJSA-1, 30 to 100 mg/kg.
Description: In vivo inhibition of MDM2 in human SJSA1 cells xenografted in athymic nude mouse assessed as upregulation of p21 mRNA level at 30 to 100 mg/kg, po qd after 7 hrs by qRT-PCR analysis

A word on the pIC50: it is the negative decadic logarithm of the IC50, by convention in mol/L. A word on the fraction unbound: it is free concentration divided by total concentration. A high value points to much free substance. The bioavailability is the share of a dose that reaches the circulation, judged against a reference dose that is usually intravenous. The half-life is the time needed for the level to fall by half in the phase considered. Higher therefore signals slow loss. The AUC is concentration integrated over time. What is called clearance is the rate of elimination divided by the concentration. The low end stands for inefficient removal, the high end for efficient removal.

`CN1C(=O)CO[C@@H](c2ccc(Cl)cc2)[C@H]1c1cccc(Cl)c1` (racemic): the pIC50 in data set [1] and in [2] was under 4.52 in each case.

Consider `CN1C[C@H](Cc2ccccc2)O[C@@H](c2ccc(Br)cc2)[C@H]1c1ccc(Br)cc1` (racemic), for which the pIC50 in data set [2] is under 4.52.

With `CC(C)(C)OC(=O)N1CC(=O)N[C@H](c2ccc(Br)cc2)[C@@H]1c1ccc(Br)cc1` (racemic), the pIC50 in [2] is under 4.52.

With `O=C(O)C[C@H]1C[C@H](c2cccc(Cl)c2)[C@@H](c2ccc(Cl)cc2)N(CC2CC2)C1=O`, the pIC50 in data set [3] was under 4.52.

As to `COc1ccc([C@H]2CC(=O)C=C(c3ccc(Cl)cc3)[C@@H]2c2ccc(Cl)cc2)cc1OC` (racemic), in data set [2], the pIC50 was under 4.52.

The compound `CCC[C@H](C(=O)O)N1C(=O)[C@H](Cc2ccc(F)cc2)O[C@@H](c2ccc(Cl)cc2)[C@H]1c1ccc(Cl)cc1` gave a pIC50 in data set [3] of under 4.52.

Take `O=C(O)C[C@@H]1O[C@@H](c2cccc(Cl)c2)[C@@H](c2ccc(Cl)cc2)N(CC2CC2)C1=O`: the concentration at 7 h is 2.1 µM in data set [4], 22.9 µM in data set [5], 0.3 µM in data set [6] and 102 µM in data set [7]. Further, the fraction unbound is 0.06 in data set [8], 0.042 in [9] and 0.059 in [11]. Further, the bioavailability in data set [10] came to 59%. For the same compound, the Vd in [12] was 3.9 L/kg. The half-life in [13] was 4.1 h. The same compound yielded an AUC in data set [14] of 4.1 µM·h. The clearance in data set [15] was 28.3 mL/min/kg. In addition, the pIC50 in data set [3] is under 4.52. The inhibition entry in [16] was “inactive”.

The compound `CN1C(=O)[C@H](Cc2ccccc2)O[C@@H](c2ccc(Br)cc2)[C@H]1c1ccc(Br)cc1` gave a pIC50 in data set [3] of under 4.52.
